Results published in patent US20250017878A1 (Chronic Airway Therapeutics Limited, priority 2021, published 2025).

Legend:
[1] = tested on: mucous metaplasia in sensitized/challenged mice; assay: Mucous metaplasia in sensitized/challenged mice (photomicrographs), Example 10; format: in vivo; conditions: sensitized/challenged mice after treatment
[2] = tested on: β2-adrenergic receptor; assay: Determination of β-adrenergic receptor density by radioligand (ICYP) binding in lung membranes of treated asthmatic mice, Example 2; format: in vivo; conditions: for change of the level of the β2-adrenergic receptor, in words: chronic treatment; for Apparent KD (of radioligand ICYP) / Bmax (β-adrenergic receptor density) / βmax (β-adrenergic receptor density): lung membranes; for Apparent KD (of radioligand ICYP): KD of ICYP binding, not of the drug; for Bmax (β-adrenergic receptor density) / βmax (β-adrenergic receptor density): mean ± SEM, n=3-5
Experimental: β2-adrenergic receptor numbers were measured in asthmatic mice as follows. […] Mice were sacrificed and lung membranes were isolated as follows. Frozen lung tissue was homogenized in an ice-cold buffer containing 0.32 M sucrose and 25 mM Tris (pH 7.4) using a polytron (Pro 200, Pro Scientific, Inc.). The homogenate was centrifuged at 1000×g for 10 min at 4° C. The resulting supernatant was centrifuged at 40,000×g for 20 min at 4° C. The pellet was suspended in an ice-cold 25 mM Tris-HCl buffer (pH 7.4) and centrifuged at 40,000×g for 20 min at 4° C. The final pellet was suspended in 200 μL of 25 mM Tris-HCl (pH 7.4); membrane protein concentration was determined by BCA protein assay kit. […] The incubation was done at 37° C. for 2 h and terminated by rapid vacuum filtration through glass fiber filters. The filters were washed three times with 250 μL of cold wash buffer (25 mM Tris-HCl, pH 7.4) and the radioactivity determined in a counter. […] Receptor densities are expressed as femtomoles of sites per milligram of protein. Bmax is determined by nonlinear regression of the saturation binding curves. […] Please note that the 15-minute and 28-day time points refer to duration of drug treatment.

[3] = tested on: asthmatic mice (ovalbumin-sensitized and ovalbumin-challenged); assay: Airway responsiveness to methacholine (airway resistance Raw, forced oscillation) in murine model of asthma, Example 1; format: in vivo, Balb/cJ mice; conditions: for airway responsiveness to methacholine provocation (Raw), chronic treatment: drug delivered for 28 days (chow or osmotic minipump); for airway responsiveness to methacholine provocation (Raw), acute treatment: single intravenous bolus 15 minutes before methacholine
Experimental: The results obtained in drug-treated animals were compared with those obtained in vehicle-treated counterparts (controls) in experiments performed in close temporal relationship. […] Mice were sensitized with subcutaneous injection of 25 μg of ovalbumin adsorbed to aluminum hydroxide on protocol days 2, 9, and 16. Subsequently, mice were given 50 μL of saline solution containing 25 μg of ovalbumin intranasally, on a daily basis, from protocol days 23 through 27. A group of ovalbumin-sensitized saline-challenged mice serves as controls for systemic sensitization and respiratory challenges with ovalbumin. Prior to intranasal administrations, mice were sedated with halothane vapor. For the study of Example 1, ovalbumin-sensitized and ovalbumin-challenged mice, and ovalbumin-sensitized and saline-challenged mice will be referred to as asthmatic mice and control mice, respectively. […] To examine the effects of duration of β-adrenergic ligand therapy on the phenotype of the murine model of asthma, the experimental drugs were administered either acutely or chronically to different groups of asthmatic mice. […] These concentrations were chosen based on those producing therapeutic effects in mice in previously published studies. The non-asthmatic mice were fed normal chow. Salbutamol was delivered for 28 days at a dose of 0.5 mg/kg/day using an osmotic minipump (Alzet®, #2004, Durect Corporation, Cupertino, CA). […] Airway resistance (Raw) was measured using the forced oscillation technique. The cellular composition of bronchoalveolar lavage fluid (BALF) was also determined. […] However, it was observed that the degree of airway responsiveness and the number of eosinophils recovered in BALF were lower in non-treated asthmatic mice studied in close temporal relationship with mice receiving acute β-adrenergic antagonist treatments that in those obtained in non-treated asthmatic mice studied concomitantly with mice on chronic β-adrenergic antagonist therapy. […] The complex input impedance of the respiratory system was computed and the value of the real part of respiratory system impedance at 19.75 Hz was taken to reflect the magnitude of airway resistance (Raw). To examine the degree of airway responsiveness of each animal, the values for Raw as a function of methacholine doses were plotted. The largest value for Raw achieved in response to methacholine stimulation was referred to as […]. For mice that achieved a plateau in the methacholine dose-Raw response curve, the ED50 was calculated by linear interpolation using the GraphPad Prism4 (GraphPad Software, Inc.). Results obtained for β-adrenergic drug-treated and non-treated mice were performed using the analysis of variance for multiple groups of a Student's t-test for comparing two groups. The Bonferroni test was used to examine the statistical differences between experimental groups. The effects of acute drug treatments on baseline respiratory system mechanics were assessed using a two-tailed paired t-test. A value of P<0.05 was considered significant.

[4] = tested on: asthmatic mice; assay: Decrease in airway resistance (Raw) by period of administration, Example 8 / Table 2; format: in vivo
Experimental: (§1) The periods of administration of the agents are 15 minutes, 2 days, and 28 days. […] This strongly supports the concept of combination therapy, such as with an inverse agonist and an agonist.

[5] = tested on: β-arrestin pathway; assay: Blockade of the β-arrestin pathway, Example 16 / FIG. 16; format: cell-based
[6] = biological target: β2-adrenergic receptor (Mus musculus, UniProt P18762); assay: Upregulation of β2-adrenergic receptor density by period of administration, Example 8 / Table 2; format: in vivo, mice; parameters: from tissue
β2-adrenergic receptor (Mus musculus, UniProt P18762), sequence (P18762 whole entry): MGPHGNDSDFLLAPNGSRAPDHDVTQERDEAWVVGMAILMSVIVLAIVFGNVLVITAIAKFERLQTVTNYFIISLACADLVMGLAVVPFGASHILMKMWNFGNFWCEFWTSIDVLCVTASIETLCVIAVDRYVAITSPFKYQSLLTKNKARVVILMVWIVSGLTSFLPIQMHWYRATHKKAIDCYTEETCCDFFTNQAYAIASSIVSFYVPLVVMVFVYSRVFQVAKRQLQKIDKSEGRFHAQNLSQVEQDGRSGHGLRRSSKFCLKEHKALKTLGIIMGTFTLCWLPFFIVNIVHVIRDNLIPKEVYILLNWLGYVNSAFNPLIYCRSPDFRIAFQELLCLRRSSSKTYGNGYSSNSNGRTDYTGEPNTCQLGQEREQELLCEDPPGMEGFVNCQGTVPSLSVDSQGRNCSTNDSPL
Experimental: as §1

[7] = tested on: asthmatic mice (ovalbumin-sensitized, challenged); assay: Combination of carvedilol and salbutamol on airway hyperresponsiveness, Example 4; conditions: 28 days treatment; highest dose of methacholine
Experimental: Mice (Balb/cJ) aged 6 weeks were housed under specific pathogen-free conditions and fed a chicken ovalbumin-free diet. Mice were systemically sensitized with ovalbumin adsorbed to aluminum hydroxide.
To induce airway constriction, a solution containing 150 μg/mL of methacholine was infused using a syringe infusion pump. […] Each methacholine dose was administered until a plateau was reached, during which data were sampled at 1-minute intervals for 3-5 minutes and then averaged.

[8] = tested on: asthmatic mice; assay: β-adrenergic receptor drugs at low and high doses on airway resistance, Example 7; format: in vivo; conditions: chronic administration in chow, high and low dose
Experimental: For these experiments, salbutamol was used for chronic administration at 0.5 mg/kg/day with a minipump and for acute administration at 0.15 mg/kg by i.v. bolus 15 minutes prior to challenge. […] Carvedilol was used at a high dose of 2400 ppm in chow or at a low dose of 720 ppm in chow. […] In these diagrams, Ctrl=control mice, non-asthmatic, non-drug treated; NTX=asthmatic mice, non-drug treated; AC=acute administration; 2d=chronic administration for 2 days; 28d=chronic administration for 28 days. The airway resistance (Raw) is plotted as cm H2O ml^−1 s.

[9] = cited from earlier work
[10] = cited from earlier work; remark: listed apart in the source
[11] = tested on: asthmatic mice; assay: Chronic treatment with metoprolol and timolol on airway responsiveness in asthmatic mice, Example 9; format: in vivo; conditions: 7 days; metoprolol 20 mg/kg 3× daily s.c., timolol 20 mg/kg in chow; methacholine challenge
Experimental: Airway resistance (Raw) was measured as in Example 1. The results were compared to historical controls as shown in FIG. 9B: Ctrl, no drug treatment, no challenge with methacholine; NTX, no drug treatment, challenged with methacholine.

With `C=CCc1ccccc1OCC(O)CNC(C)C` (stereo not drawn) [Alprenolol, alprenolol] the mucous metaplasia [1] was “no improvement in mucous metaplasia”, the “change of the level of the β2-adrenergic receptor, in words” value [2] was “slight decrease of the level of the 2-adrenergic receptor” and the “Apparent KD (of radioligand ICYP)” value ([2]; drug treatment 15 Minutes) was “(453.6 ± 86.33) pM”. The “Bmax (β-adrenergic receptor density)” value ([2]; drug treatment 15 Minutes) was 299.5 ± 12.19 femtomoles of sites per milligram of protein, the “Apparent KD (of radioligand ICYP)” value ([2]; drug treatment 28 Days) was “(290.9 ± 55.07) pM” and the “βmax (β-adrenergic receptor density)” value ([2]; drug treatment 28 Days) was 179.2 ± 53.05 femtomoles of sites per milligram of protein. The “airway responsiveness to methacholine provocation (Raw), chronic treatment” value (“airway responsiveness … chronic treatment” below) [3] was “provides no benefit upon chronic administration”, the “airway responsiveness to methacholine provocation (Raw), acute treatment” value (shortened to “airway responsiveness … acute treatment”) [3] was “airway responsiveness was diminished” and the “Decreased Raw” value ([4]; 15 minutes administration) was “yes”. The “Decreased Raw” value ([4]; 2 days administration) was “no”, the “Decreased Raw” value ([4]; 28 days administration) was “no” and the “block of the β-arrestin pathway” value [5] was “did not block the β-arrestin pathway”. The “Increased β2AR density” value ([6]; 15 minutes administration) was “yes”, the “Increased β2AR density” value ([6]; 2 days administration) was “no” and the “Increased β2AR density” value ([6]; 28 days administration) was “no”.

For `COc1ccccc1OCCNCC(O)COc1cccc2[nH]c3ccccc3c12` (stereo not drawn) [Carvedilol, carvedilol], the “bronchoconstriction / airway hyperresponsiveness to allergen and methacholine challenge” value [7] was “higher bronchoconstriction than these treatments but less than the non-drug treated sensitized and challenged (NTX S/C) mice”, the “increase of the level of β2-adrenergic receptors over the non-treated mice” value ([2]; chronic administration, versus untreated methacholine-challenged asthmatic mice) was “over 10 fold” and the “Apparent KD (of radioligand ICYP)” value ([2]; drug treatment 15 Minutes) was “(565.2 ± 192.8) pM”. For the same molecule, the “Bmax (β-adrenergic receptor density)” value ([2]; drug treatment 15 Minutes) was 86.3 ± 19.42 femtomoles of sites per milligram of protein, the “Apparent KD (of radioligand ICYP)” value ([2]; drug treatment 28 Days) was “(1444.0 ± 202.0) pM” and the “βmax (β-adrenergic receptor density)” value ([2]; drug treatment 28 Days) was 904.1 ± 43.46 femtomoles of sites per milligram of protein. The “airway responsiveness … chronic treatment” value [3] was “reduced the responsiveness of asthmatic mice to methacholine provocation”, the “airway responsiveness … acute treatment” value [3] was “enhanced the airway responsiveness in the asthmatic mice” and the “Decreased Raw” value ([4]; 15 minutes administration) was “no”. For the same molecule, the “Decreased Raw” value ([4]; 2 days administration) was “no”, the “Decreased Raw” value ([4]; 28 days administration) was “yes” and the “protection from airway hyperresponsiveness” value [8] was “providing protection from airway hyperresponsiveness with chronic administration”. For the same molecule, the “block of the β-arrestin pathway” value [5] was “did not block the β-arrestin pathway”, the “Increased β2AR density” value ([6]; 15 minutes administration) was “no” and the “Increased β2AR density” value ([6]; 2 days administration) was “no”. The “Increased β2AR density” value ([6]; 28 days administration) was “yes”.

For `CC(C)(C)NCC(O)c1ccc(O)c(CO)c1` (stereo not drawn) [Salbutamol, salbutamol], the “change of the level of the β2-adrenergic receptor, in words” value [2] was “slight decrease”, the “Apparent KD (of radioligand ICYP)” value ([2]; drug treatment 15 Minutes) was “(228.8 ± 33.07) pM” and the “Bmax (β-adrenergic receptor density)” value ([2]; drug treatment 15 Minutes) was 256.5 ± 29.24 femtomoles of sites per milligram of protein. For the same molecule, the “Apparent KD (of radioligand ICYP)” value ([2]; drug treatment 28 Days) was “(225.4 ± 41.79) pM”, the “βmax (β-adrenergic receptor density)” value ([2]; drug treatment 28 Days) was 97.0 ± 23.02 femtomoles of sites per milligram of protein and the “airway responsiveness … chronic treatment” value [3] was “no protection was observed”. The “airway responsiveness … acute treatment” value [3] was “reduced the level of airway responsiveness to methacholine provocation and the level of airway resistance”, the “Decreased Raw” value ([4]; 15 minutes administration) was “yes” and the “Decreased Raw” value ([4]; 2 days administration) was “no”. The “Decreased Raw” value ([4]; 28 days administration) was “no”, the “bioavailability of inhaled drug” value ([9]; 10 patients with cystic fibrosis versus healthy adults) was “greater than that in healthy adults” and the “Increased β2AR density” value ([6]; 15 minutes administration) was “yes”. The “Increased β2AR density” value ([6]; 2 days administration) was “no” and the “Increased β2AR density” value ([6]; 28 days administration) was “no”.

For `CCCC1O[C@@H]2C[C@H]3[C@@H]4CCC5=CC(=O)C=C[C@]5(C)[C@H]4[C@@H](O)C[C@]3(C)[C@]2(C(=O)CO)O1` (stereo partly drawn) [budesonide], the “plasma clearance of the two enantiomers per kilogram bodyweight, children with asthma higher than healthy adults” value ([10]; 6 children with asthma versus 11 healthy adults) is listed as “about 50%”, the elimination half-life ([10]; in vivo) is listed as 2.8 ± 1.1 h and the plasma clearance ([10]; in vivo) is listed as 84 ± 27 L/h. The “plasma clearance relative to average clearance of prednisolone” value ([10]; in vivo) was “about 10 fold” and the “systemic availability of the swallowed fraction” value ([10]; in vivo) was 10.7±4.3%.

In the case of `C[C@@H]1C[C@H]2[C@@H]3C[C@H](F)C4=CC(=O)C=C[C@]4(C)[C@@]3(F)[C@@H](O)C[C@]2(C)[C@@]1(O)C(=O)SCF` [fluticasone], the “first-pass hepatic metabolism of the systemically absorbed drug” value ([10]; inhaled drug) is given as “almost complete”.

With `COCCc1ccc(OCC(O)CNC(C)C)cc1` (stereo not drawn) [metoprolol] the “airway hyperresponsiveness after chronic treatment” value [11] was “effective in reducing airway hyperresponsiveness in asthmatic mice”.

In the case of `CC(C)NCC(O)COc1cccc2ccccc12` (stereo not drawn) [propranolol], the “block of the β-arrestin pathway” value [5] was “did not block the β-arrestin pathway”.

In the case of `OCc1cc(C(O)CNCCCCCCOCCCCc2ccccc2)ccc1O` (stereo not drawn) [salmeterol], the “time in which the majority of a dose is eliminated in the feces” value ([9]; in vivo) is given as at most 72 h.

In the case of `CC(C)(C)NCC(O)c1cc(O)cc(O)c1` (stereo not drawn) [terbutaline], the “increase of bioavailability by the oral component” value ([9]; from an MDI) is listed as 6.7% and the “absorption through the lung” value ([9]; healthy smokers versus healthy nonsmokers) is listed as “more rapidly in healthy smokers than in healthy nonsmokers”.

For `CC(C)(C)NC[C@H](O)COc1nsnc1N1CCOCC1` [timolol], the “airway hyperresponsiveness after chronic treatment” value [11] was “effective in reducing airway hyperresponsiveness in asthmatic mice”.
